# Data as given in patent publication US9802942B2, “Substituted 4-methyl-pyrrolo[1,2-A]pyrimidine-8-carboxamide compounds and uses thereof for modulating glucocerebrosidase activity” (Northwestern University, priority 2015, dated 2017).
# Target: T1, glucocerebrosidase (GCase), recombinant wt. enzyme velaglucerase alfa (Homo sapiens, UniProt P04062)
# T1 construct: purchased Shire Human Genetic Therapies, Inc. Vpriv
# T1 sequence (P04062 40-536): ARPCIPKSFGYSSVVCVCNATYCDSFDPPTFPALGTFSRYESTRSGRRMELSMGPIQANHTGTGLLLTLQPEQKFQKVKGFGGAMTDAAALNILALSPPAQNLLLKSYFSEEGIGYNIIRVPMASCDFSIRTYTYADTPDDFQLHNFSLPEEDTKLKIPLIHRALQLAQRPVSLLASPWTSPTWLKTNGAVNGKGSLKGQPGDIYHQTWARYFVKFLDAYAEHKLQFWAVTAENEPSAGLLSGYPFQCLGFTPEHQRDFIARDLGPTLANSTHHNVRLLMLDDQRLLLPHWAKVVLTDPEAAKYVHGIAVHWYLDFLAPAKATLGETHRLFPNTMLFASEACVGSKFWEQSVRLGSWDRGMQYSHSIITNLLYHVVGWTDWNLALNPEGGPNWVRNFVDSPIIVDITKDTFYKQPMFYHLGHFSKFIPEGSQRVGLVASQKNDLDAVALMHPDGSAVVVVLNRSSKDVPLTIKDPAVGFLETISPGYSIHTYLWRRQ
# Assay: Glucocerebrosidase activity assay with blue substrate (4MU-Glc)
# Format: biochemical
# Conditions: Table 1
# Description: The compounds in DMSO solution 0.5 μL/well were transferred to a black 96-well plate (the final titration was 24 nM to 50 μM, 12 concentrations, 2 times dilution). 33.5 μL enzyme solution (7.5 nM final concentration) was transferred to the wells. After 5 min of incubation at room temperature, the enzyme reaction was initiated by the addition of 33 μL/well blue substrate or 66.5 μL/well red substrate. Final concentrations of the blue substrate (4MU-Glc) and red substrate (Res-Glc) were 1.5 mM and 30 μM, respectively. The red substrate reaction was measured in the Biotek Synergy H1 multi-mode plate reader with Ex=573 nm and Em=610 nm at 37° C. every 20 sec for 30 min. The blue substrate reaction was terminated by the addition of 33 μL/well stop solution (1 M NaOH and 1 M glycine mixture, pH 10) after 30 min of incubation at 37° C. The fluorescence was then measured in the plate reader at Ex=365 nm and Em=440 nm.
# The recombinant wt. enzyme velaglucerase alfa (Vpriv®, Shire Human Genetic Therapies, Inc.) was obtained from residual solution after clinical infusions. The GCase activity assay buffer was composed of 50 mM citric acid, 176 mM K2HPO4, and 0.01% Tween-20 at pH 5.9. A solution of 1 M sodium hydroxide and 1 M glycine was used as the stop solution for the 4MU-β-glc substrate assay.
# The compounds in DMSO solution 0.5 μL/well was transferred to a black 96-well plate (the final titration was 24 nM to 50 μM, 12 concentrations). 33.5 μL enzyme solution (7.5 nM final concentration) was transferred to the wells. After 5 min of incubation at room temperature, the enzyme reaction was initiated by the addition of 33 μL/well 4MU-Glc substrate or 66.5 μL/well red substrate. Final concentrations of the 4MU-Glc substrate and Res-Glc substrate were 1.5 mM and 30 μM, respectively. The red substrate reaction was measured in the Biotek Synergy H1 multi-mode plate reader with Ex=573 nm and Em=610 nm at 37° C. in every 20 seconds for 30 min. The 4MU-Glc substrate reaction was terminated by the addition of 33 μL/well stop solution (1 M NaOH and 1 M glycine mixture, pH 10) after 30 min of incubation at 37° C. The fluorescence was then measured in the plate reader with Ex=365 nm and Em=440 nm.
row,Structure (SMILES),Activator / Inhibitor (word in Ac50 cell)
1,COc1ccc2nc(NC(=O)c3ccn4c(C)cc(C)nc34)sc2c1 [compound 47],Inhibitor
2,Cc1cc(C)n2ccc(C(=O)Nc3ccc(-c4cn(CCCCC(=O)O)nn4)cc3)c2n1 [compound 57],Activator
3,Cc1cc(C)n2ccc(C(=O)Nc3ccc(-c4cn(CCCCCCC(=O)O)nn4)cc3)c2n1 [compound 58],Activator
4,Cc1cc(C)n2ccc(C(=O)Nc3ccc(-c4cn(CCCCCCCCC(=O)O)nn4)cc3)c2n1 [compound 59],Activator
5,Cc1cc(C)n2ccc(C(=O)Nc3ccc(-c4cn(CCCCC(=O)ON5C(=O)CCC5=O)nn4)cc3)c2n1 [compound 60],Activator
6,Cc1cc(C)n2ccc(C(=O)Nc3ccc(-c4cn(CCCCCCCCC(=O)ON5C(=O)CCC5=O)nn4)cc3)c2n1 [compound 62],Activator

# Same assay, conditions: Table 1; titration 24 nM to 50 μM; substrate not given; read-out: Ac50
row,Structure (SMILES),AC50
1,C#Cc1ccc(NC(=O)c2ccn3c(C)cc(C)nc23)cc1 [compound 1],0.14 µM
2,Cc1cc(C)n2ccc(C(=O)Nc3ccc(C(F)(F)F)cc3)c2n1 [compound 5],0.8 µM
3,Cc1cc(C)n2ccc(C(=O)Nc3ccc(CN4CCOCC4)cc3)c2n1 [compound 7],112 µM
4,Cc1cc(C)n2ccc(C(=O)Nc3ccc(CN4CCN(C)CC4)cc3)c2n1 [compound 8],39.8 µM
5,Cc1cc(C)n2ccc(C(=O)Nc3ccc(CN4CCCCC4)cc3)c2n1 [compound 9],70.8 µM
6,Cc1cc(C)n2ccc(C(=O)Nc3ccc(N4CCN(C)CC4)cc3)c2n1 [compound 10],7.08 µM
7,CCN1CCN(c2ccc(NC(=O)c3ccn4c(C)cc(C)nc34)cc2)CC1 [compound 11],31.6 µM
8,Cc1cc(C)n2ccc(C(=O)Nc3ccc(N4CCN(Cc5ccccc5)CC4)cc3)c2n1 [compound 12],5.01 µM
9,Cc1cc(C)n2ccc(C(=O)Nc3ccc(Cc4ccccc4)cc3)c2n1 [compound 13],0.79 µM
10,Cc1cc(C)n2ccc(C(=O)Nc3ccc(CCN4CCOCC4)cc3)c2n1 [compound 14],31.6 µM
11,Cc1cc(C)n2ccc(C(=O)Nc3ccc(CCN4CCCCC4)cc3)c2n1 [compound 15],39.8 µM
12,Cc1cc(C)n2ccc(C(=O)Nc3ccc(CCN4CCN(C)CC4)cc3)c2n1 [compound 16],44.7 µM
13,Cc1cc(C)n2ccc(C(=O)Nc3ccc(N(C)C)cc3)c2n1 [compound 17],3.55 µM
14,Cc1cc(C)n2ccc(C(=O)Nc3ccc(N4CCCCC4)cc3)c2n1 [compound 18],1.58 µM
15,Cc1cc(C)n2ccc(C(=O)Nc3ccc(N4CCOCC4)cc3)c2n1 [compound 19],1.41 µM
16,Cc1cc(C)n2ccc(C(=O)Nc3ccc(CN(C)C)cc3)c2n1 [compound 20],14.1 µM
17,Cc1cc(C)n2ccc(C(=O)Nc3nccc4ccccc34)c2n1 [compound 21],39.8 µM
18,Cc1cc(C)n2ccc(C(=O)Nc3ccncc3)c2n1 [compound 22],25.1 µM
19,Cc1cc(C)n2ccc(C(=O)Nc3ccccn3)c2n1 [compound 23],22.4 µM
20,Cc1cc(C)n2ccc(C(=O)Nc3ccc(-c4ccccc4)cc3)c2n1 [compound 24],1.41 µM
21,Cc1cc(C)n2ccc(C(=O)Nc3ccc(N4CCCC4)cc3)c2n1 [compound 25],0.51 µM

row,Structure (SMILES),AC50
1,Cc1cc(C)n2ccc(C(=O)Nc3nc4ccccc4[nH]3)c2n1 [compound 26],1.26 µM
2,Cc1cc(C)n2ccc(C(=O)NC3CCCCC3)c2n1 [compound 27],15.8 µM
3,Cc1cc(C)n2ccc(C(=O)NC3CCc4ccccc43)c2n1 (stereo not shown) [compound 28],3.98 µM
4,Cc1cc(C)n2ccc(C(=O)NC3Cc4ccccc4C3)c2n1 [compound 29],2.51 µM
5,Cc1cc(C)n2ccc(C(=O)Nc3ccc(CCO)cc3)c2n1 [compound 30],2.82 µM
6,Cc1cc(C)n2ccc(C(=O)Nc3nc4ccccc4s3)c2n1 [compound 31],0.4 µM
7,Cc1cc(C)n2ccc(C(=O)NC3CCN(Cc4ccccc4)CC3)c2n1 [compound 32],50 µM
8,Cc1cc(C)n2ccc(C(=O)NC3CCN(C(C)C)CC3)c2n1 [compound 34],30 µM
9,Cc1cc(C)n2ccc(C(=O)NC3CCN(c4ccccc4)CC3)c2n1 [compound 35],22.4 µM
10,Cc1cc(C)n2ccc(C(=O)Nc3ccc(-n4ccnc4)cc3)c2n1 [compound 36],107 µM
11,Cc1cc(C)n2ccc(C(=O)NC3CCC(N(C)C)CC3)c2n1 (stereo not shown) [compound 37],40 µM
12,Cc1cc(C)n2ccc(C(=O)Nc3ccc(C#Cc4ccccc4)cc3)c2n1 [compound 38],0.79 µM
13,Cc1cc(C)n2ccc(C(=O)Nc3nc4c(s3)CN(C)CC4)c2n1 [compound 39],39.8 µM
14,Cc1cc(C)n2ccc(C(=O)Nc3nc4cc(Cl)ccc4s3)c2n1 [compound 41],39.9 µM
15,Cc1cc(C)n2ccc(C(=O)Nc3nc4cc(F)ccc4s3)c2n1 [compound 42],50.2 µM
16,Cc1cc(C)n2ccc(C(=O)Nc3nc4c(C)cccc4s3)c2n1 [compound 43],0.2 µM
17,CCc1nnc(NC(=O)c2ccn3c(C)cc(C)nc23)s1 [compound 44],22.4 µM
18,Cc1cc(C)n2ccc(C(=O)Nc3ncc4ccccc4n3)c2n1 [compound 45],35.5 µM
19,Cc1cc(C)n2ccc(C(=O)Nc3cnn4c(C)cc(C)nc34)c2n1 [compound 46],0.45 µM
20,Cc1ccc2nc(NC(=O)c3ccn4c(C)cc(C)nc34)sc2c1 [compound 48],0.2 µM
21,CCCn1cnc(NC(=O)c2ccn3c(C)cc(C)nc23)n1 [compound 49],39.8 µM

row,Structure (SMILES),AC50
1,Cc1cc(C)n2ccc(C(=O)Nc3ccc(N4CCC(N(C)C)CC4)cc3)c2n1 [compound 50],10 µM
2,Cc1cc(C)n2ccc(C(=O)NCc3cccs3)c2n1 [compound 51],15.8 µM
3,Cc1cc(C)n2ccc(C(=O)Nc3ccc(N=[N+]=[N-])cc3)c2n1 [compound 52],0.2 µM
4,Cc1cc(C)n2ccc(C(=O)Nc3ccc(C(=O)c4ccccc4)cc3)c2n1 [compound 53],0.14 µM
5,Cc1cc(C)n2ccc(C(=O)Nc3ccc(Oc4ccccc4)cc3)c2n1 [compound 54],0.56 µM
6,Cc1cc(C)n2ccc(C(=O)Nc3ccc(OCCC(=O)O)cc3)c2n1 [compound 56],15.8 µM
7,Cc1cc(C)n2ccc(C(=O)Nc3ccc(-c4cn(CCCCC(=O)O)nn4)cc3)c2n1 [compound 57],7.08 µM
8,Cc1cc(C)n2ccc(C(=O)Nc3ccc(-c4cn(CCCCCCC(=O)O)nn4)cc3)c2n1 [compound 58],1.78 µM
9,Cc1cc(C)n2ccc(C(=O)Nc3ccc(-c4cn(CCCCCCCCC(=O)O)nn4)cc3)c2n1 [compound 59],1.78 µM
10,Cc1cc(C)n2ccc(C(=O)Nc3ccc(-c4cn(CCCCC(=O)ON5C(=O)CCC5=O)nn4)cc3)c2n1 [compound 60],0.63 µM
11,Cc1cc(C)n2ccc(C(=O)Nc3ccc(-c4cn(CCCCCCC(=O)ON5C(=O)CCC5=O)nn4)cc3)c2n1 [compound 61],0.4 µM
12,Cc1cc(C)n2ccc(C(=O)Nc3ccc(-c4cn(CCCCCCCCC(=O)ON5C(=O)CCC5=O)nn4)cc3)c2n1 [compound 62],0.45 µM
13,Cc1cc(C)n2ccc(C(=O)Nc3ccc(-c4cn(CCN(C)C)nn4)cc3)c2n1 [compound 63],39.8 µM
14,Cc1cc(C)n2ccc(C(=O)Nc3ccc(-c4cn(CCCN)nn4)cc3)c2n1 [compound 64],7.07 µM
15,Cc1cc(C)n2ccc(C(=O)Nc3ccc(-c4cn(CCOCCN)nn4)cc3)c2n1 [compound 65],7.08 µM
16,Cc1cc(C)n2ccc(C(=O)Nc3ccc(-c4cn(CCOCCOCCOCCN)nn4)cc3)c2n1 [compound 66],7.94 µM
17,Cc1cc(C)n2ccc(C(=O)Nc3ccc(-c4cn(CCOCCOCCC(=O)NCCN5CCOCC5)nn4)cc3)c2n1 [compound 67],8.91 µM
18,Cc1cc(C)n2ccc(C(=O)Nc3ccc(-c4cn(CCOCCOCCC(=O)NCCC5CCCN5C)nn4)cc3)c2n1 (stereo not shown) [compound 68],10 µM
19,Cc1cc(C)n2ccc(C(=O)Nc3ccc(-c4cn(CCOCCOCCC(=O)NC5CCCCC5)nn4)cc3)c2n1 [compound 69],2 µM
